Results on two molecules are retold here after publication PMC10853515, “Identification of potential inhibitor against Leishmania donovani mitochondrial DNA primase through in-silico and in vitro drug repurposing approaches” (Scientific Reports, 2024).

For the assay, the target named is T1, mitochondrial DNA primase (LdmtPRI1) (Leishmania donovani, UniProt A0A3S7WXR7).
T1 construct: gene LdCL_230015100; recombinant histidine-tagged LdmtPRI1 (pET28a), purified from E. coli BL21
T1 sequence (A0A3S7WXR7 1-533): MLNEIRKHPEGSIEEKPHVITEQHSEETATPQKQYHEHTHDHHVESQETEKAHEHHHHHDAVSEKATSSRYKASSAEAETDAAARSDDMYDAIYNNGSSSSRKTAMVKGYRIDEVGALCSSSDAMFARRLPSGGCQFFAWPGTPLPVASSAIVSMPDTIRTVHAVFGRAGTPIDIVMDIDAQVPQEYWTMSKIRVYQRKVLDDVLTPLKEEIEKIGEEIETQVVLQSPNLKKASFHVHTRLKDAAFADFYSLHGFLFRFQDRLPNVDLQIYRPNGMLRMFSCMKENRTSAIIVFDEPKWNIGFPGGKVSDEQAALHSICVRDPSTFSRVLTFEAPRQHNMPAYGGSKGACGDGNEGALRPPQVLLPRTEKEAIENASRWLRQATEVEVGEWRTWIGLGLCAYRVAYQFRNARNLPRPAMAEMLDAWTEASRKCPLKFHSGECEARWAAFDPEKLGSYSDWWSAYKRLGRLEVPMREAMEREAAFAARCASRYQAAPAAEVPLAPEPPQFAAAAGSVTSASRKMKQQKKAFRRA
In words: coupled primase-pyrophosphatase malachite green assay, purified enzyme. The format is biochemical.

With `CCCCCOC(=O)Nc1nc(=O)n([C@@H]2O[C@H](C)[C@@H](O)[C@H]2O)cc1F` [capecitabine], the midpoint of inhibition, the IC50, lay at 15.27 ± 0.03 nM.
With `C/C(=C(\CCOP(=O)(O)O)SC(=O)c1ccccc1)N(C=O)Cc1cnc(C)nc1N` [benfotiamine] the figure was 20.68 ± 0.03 nM.

As a reminder, the IC50 is the concentration that gives 50% inhibition. A low value points to greater potency.
